Experiments:
[1] = molecular target: T1, EED protein (His6-tagged full-length) binding to H3K27me3 polypeptide (Homo sapiens, UniProt O75530); experiment: AlphaScreen evaluation of blocking the binding of EED to H3K27Me3; conditions: EED 60 nM, biotinylated H3K27me3 75 nM, 30 minutes incubation
T1 construct: His6-tagged full-length EED protein (441 amino acids)
Procedure: Firstly, compound solutions of different concentration gradients were prepared. Compound powder was dissolved in DMSO to prepare a mother liquor. 1.5 μl of the mother liquor of the compound was taken and added into 198.5 μl of a reaction buffer (25 mM HEPES (pH 8.0), 50 mM NaCl, 0.015% Tween 20, 0.5% BSA). The mixture was mixed uniformly. Then a 3-fold series dilution was carried out with the above-mentioned buffer containing 0.75% DMSO. 9 different test concentrations were provided for one same compound. 5 μL of compounds of different concentration gradients were taken and added into the ProxiPlate-384 Plus, White detection plate (PerkinElmer, 6008280) and two replicates in parallel were provided for each concentration gradient.
Secondly, a reaction for blocking the binding was carried out. The above-mentioned buffer was used to dilute His6-tagged full-length EED protein (441 amino acids) to 60 nM and biotinylated polypeptide fragment H3K27me3 (amino acids at positions 19-33) (Biotinylated-H3K27me3) to 75 nM. 5 μl of the polypeptide fragment at the concentration of 75 nM and 5 µl of the protein at the concentration of 60 nM were transferred to the detection wells containing the compound, respectively. The detection plate was sealed with the film and incubation was carried out at room temperature for 30 minutes.
Finally, the detection was carried out with the AlphaScreen method. Prior use, nickel chelate receptor beads and streptavidin donor beads (at the ratio of 1:1, Perkin Elmer, product number 6760619M) were mixed with the above-mentioned reaction buffer. Then 5 μl of the above-mentioned pre-mixed detection solution was added to each of the detection wells. The donor beads and receptor beads were both at a final concentration of 5 μg/mL. The detection plate was covered and sealed with tinfoil and placed in the dark at room temperature for 1 hour. The signal was read using the AlphaScreen detector on the Spectra max i3. AlphaScreen signals were standardlized based on the readings obtained from positive controls (maximum signal controls) and negative controls (minimum signal controls) to give the inhibition rates for compounds at different concentrations, and afterwards non-linear regression analysis was carried out using GraphPad Prism 5, inhibition curves were made based on the Dose-Response equation of Y=Bottom+(Top−Bottom)/(1+10^((Log IC50−X)*HillSlope)) and the IC50 values of each compound were obtained. […]

[2] = system: trimethylation level of histone H3K27 in G401 cells; experiment: ELISA (H3K27 trimethylation) analysis in G401 cells; type: cell-based; conditions: Homo sapiens, G-401, 72 hours, H3K27me3 standardized to H3
In short: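 Cells exposed 72 h to 10-point 3-fold dilutions, top 10 μM, 0.5% final DMSO. Acid-extracted histones assayed by ELISA (ECL) for H3K27me3, normalized to total H3 and to DMSO control; IC50 from dose-response fit.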

KARPAS-422 cells = experiment: Cell proliferation analysis, KARPAS-422, 13 days, CellTiter-Glo; type: cell-based; conditions: Homo sapiens, 312 h
In short: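 KARPAS-422 cells were treated with PRC2 inhibitors over 9 three-fold dilutions from 10 μM top (0.5% DMSO, duplicates) in RPMI-1640 with 15% FBS at 37 °C. Every 3–4 days cells were counted and reseeded at 1×10^4/well with fresh compound. Viability was read by CellTiter-Glo luminescence on day 13.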

T1 sequence (O75530 whole entry): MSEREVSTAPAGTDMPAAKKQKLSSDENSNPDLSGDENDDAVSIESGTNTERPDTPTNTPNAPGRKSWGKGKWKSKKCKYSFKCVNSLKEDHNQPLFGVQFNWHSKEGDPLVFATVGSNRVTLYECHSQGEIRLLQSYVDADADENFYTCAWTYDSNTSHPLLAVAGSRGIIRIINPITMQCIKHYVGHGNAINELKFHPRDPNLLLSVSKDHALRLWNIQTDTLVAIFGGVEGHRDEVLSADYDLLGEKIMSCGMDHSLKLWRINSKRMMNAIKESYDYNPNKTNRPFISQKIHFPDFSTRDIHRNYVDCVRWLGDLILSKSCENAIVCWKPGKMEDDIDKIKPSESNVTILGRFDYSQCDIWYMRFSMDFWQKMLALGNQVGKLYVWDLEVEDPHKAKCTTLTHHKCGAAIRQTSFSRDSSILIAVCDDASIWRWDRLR

| SMILES | IC50 [1] [µM] | IC50 [2] [µM] | IC50 (KARPAS-422 cells) [µM] |
| --- | --- | --- | --- |
| Fc1ccc2c(c1CNc1ncc(-c3cccn4c(F)cnc34)c3nncn13)CCO2 | 0.0092 | 0.0035 |  |
| Fc1ccc2c(c1CNc1ncc(-c3cccc4cccnc34)c3nncn13)CCO2 [N-((5-fluoro-2,3-dihydrobenzofuran-4-yl)methyl)-8-(quinolin-8-yl)-[1,2,4]triazolo[4,3-c]pyrimidin-5-amine] | 0.0051 | 0.0029 |  |
| CCOC(=O)c1c(C(F)(F)F)nc2c(-c3cnc(NCc4c(F)ccc5c4CCO5)n4cnnc34)cccn12 [Ethyl 8-(5-(((5-fluoro-2,3-dihydrobenzofuran-4-yl)methyl)amino)-[1,2,4]triazolo[4,3-c]pyrimidin-8-yl)-2-(trifluoromethyl)imidazo[1,2-a]pyridine-3-carboxylate] | 0.029 | 0.202 |  |
| O=S1(=O)C=c2cc(-c3cnc(NCc4c(F)ccc5c4[C@H]4C[C@H]4O5)n4cnnc34)ccc2=C1F [1-fluoro-5-(5-((((1aR,6bR)-5-fluoro-1a,6b-dihydro-1H-cyclopropa[b]benzofuran-6-yl)methyl)amino)-[1,2,4]triazolo[4,3-c]pyrimidin-8-yl)benzo[c]thiophene 2,2-dioxide] | 0.186 | 0.075 |  |
| Fc1ccc2c(c1CNc1ncc(C3=CC=CN4CCN=C34)c3nncn13)CCO2 [8-(2,3-dihydroimidazo[1,2-a]pyridin-8-yl)-N-((5-fluoro-2,3-dihydrobenzofuran-4-yl)methyl)-[1,2,4]triazolo[4,3-c]pyrimidin-5-amine] | 0.0052 |  |  |
| Cc1ccc(-c2cnc(NCc3c(F)ccc4c3CCO4)n3cnnc23)c2ncc(C(=O)O)n12 [8-(5-(((5-fluoro-2,3-dihydrobenzofuran-4-yl)methyl)amino)-[1,2,4]triazolo[4,3-c]pyrimidin-8-yl)-5-methylimidazo[1,2-a]pyridine-3-carboxylic acid] | 0.0054 | 0.004 |  |
| Fc1ccc2c(c1CNc1ncc(-c3c(C(F)(F)F)ccc4nsnc34)c3nncn13)CCO2 [N-((5-fluoro-2,3-dihydrobenzofuran-4-yl)methyl)-8-(5-(trifluoromethyl)benzo[c][1,2,5]thiadiazol-4-yl)-[1,2,4]triazolo[4,3-c]pyrimidin-5-amine] | 0.0464 | 0.17 |  |
| CCOC(=O)c1c(C)nc2c(-c3cnc(NCc4c(F)ccc5c4CCO5)n4cnnc34)cc(F)cn12 [Ethyl 6-fluoro-8-(5-(((5-fluoro-2,3-dihydrobenzofuran-4-yl)methyl)amino)-[1,2,4]triazolo[4,3-c]pyrimidin-8-yl)-2-methylimidazo[1,2-a]pyridine-3-carboxylate] | 0.0452 | 0.087 |  |
| CCOC(=O)c1c(O)nc2c(-c3cnc(NCc4c(F)ccc5c4CCO5)n4cnnc34)cccn12 [Ethyl 8-(5-(((5-fluoro-2,3-dihydrobenzofuran-4-yl)methyl)amino)-[1,2,4]triazolo[4,3-c]pyrimidin-8-yl)-2-hydroxyimidazo[1,2-a]pyridine-3-carboxylate] | 0.0221 | 0.068 |  |
| CC1=Cc2cc(-c3cnc(NCc4c(F)ccc5c4CCO5)n4cnnc34)cc(Cl)c2S1(=O)=O [7-chloro-5-(5-(((5-fluoro-2,3-dihydrobenzofuran-4-yl)methyl)amino)-[1,2,4]triazolo[4,3-c]pyrimidin-8-yl)-2-methylbenzo[b]thiophene 1,1-dioxide] | 0.0039 | 0.026 |  |
| CCOC(=O)c1c(O)nc2c(-c3cnc(NCc4c(F)ccc5c4CCO5)n4cnnc34)cc(F)cn12 [Ethyl 6-fluoro-8-(5-(((5-fluoro-2,3-dihydrobenzofuran-4-yl)methyl)amino)-[1,2,4]triazolo[4,3-c]pyrimidin-8-yl)-2-hydroxyimidazo[1,2-a]pyridine-3-carboxylate] | 0.0912 | 0.091 |  |
| Cc1ccc(-c2cnc(NCc3c(F)ccc4c3CCO4)n3cnnc23)c2ncc(F)n12 [N-((5-fluoro-2,3-dihydrobenzofuran-4-yl)methyl)-8-(3-fluoro-5-methylimidazo[1,2-a]pyridin-8-yl)-[1,2,4]triazolo[4,3-c]pyrimidin-5-amine] | 0.0058 | 0.0061 |  |
| Cc1cc(-c2cnc(NCc3c(F)ccc4c3CCO4)n3cnnc23)c2nc(C(F)(F)F)cn2c1 [N-((5-fluoro-2,3-dihydrobenzofuran-4-yl)methyl)-8-(6-methyl-2-(trifluoromethyl)imidazo[1,2-a]pyridin-8-yl)-[1,2,4]triazolo[4,3-c]pyrimidin-5-amine] | 0.0157 | 0.041 |  |
| O=C(O)c1cnc2c(-c3cnc(NCc4c(F)ccc5c4CCO5)n4cnnc34)cccn12 [8-(5-(((5-fluoro-2,3-dihydrobenzofuran-4-yl)methyl)amino)-[1,2,4]triazolo[4,3-c]pyrimidin-8-yl)imidazo[1,2-a]pyridine-3-carboxylic acid] | 0.0051 | 0.329 |  |
| N#Cc1cnc2c(-c3cnc(NCc4c(F)ccc5c4CCO5)n4cnnc34)cc(F)cn12 [6-fluoro-8-(5-(((5-fluoro-2,3-dihydrobenzofuran-4-yl)methyl)amino)-[1,2,4]triazolo[4,3-c]pyrimidin-8-yl)imidazo[1,2-a]pyridine-3-carbonitrile] |  | 0.0089 | 0.0083 |
| CC(C)(O)CNCc1ccc(-c2cnc(NCc3c(F)ccc4c3CCO4)n3cnnc23)c2ncnn12 [1-(((8-(5-(((5-fluoro-2,3-dihydrobenzofuran-4-yl)methyl)amino)-[1,2,4]triazolo[4,3-c]pyrimidin-8-yl)-[1,2,4]triazolo[1,5-a]pyridin-5-yl)methyl)amino)-2-methylpropan-2-ol] |  | 0.0022 | 0.0021 |
| Fc1ccc2c(c1CNc1ncc(-c3ccc(Cn4ccnc4)n4ncnc34)c3nncn13)CCO2 [8-(5-((1H-imidazol-1-yl)methyl)-[1,2,4]triazolo[1,5-a]pyridin-8-yl)-N-((5-fluoro-2,3-dihydrobenzofuran-4-yl)methyl)-[1,2,4]triazolo[4,3-c]pyrimidin-5-amine] |  | 0.0006 | 0.0009 |
| Fc1ccc2c(c1CNc1ncc(-c3cc(Cl)cn4cc(C(F)(F)F)nc34)c3nncn13)CCO2 | 0.0096 | 0.089 |  |
| CC1=C(Cl)c2cc(-c3cnc(NCc4c(F)ccc5c4[C@H]4C[C@H]4O5)n4cnnc34)ccc2S1(=O)=O [3-chloro-5-(5-((((1aR,6bR)-5-fluoro-1a,6b-dihydro-1H-cyclopropa[b]benzofuran-6-yl)methyl)amino)-[1,2,4]triazolo[4,3-c]pyrimidin-8-yl)-2-methylbenzo[b]thiophene 1,1-dioxide] | 0.011 | 0.127 |  |
| CN1CCN(c2ccc(-c3cnc(NCc4c(F)ccc5c4CCO5)n4cnnc34)c3ncnn23)CC1 [N-((5-fluoro-2,3-dihydrobenzofuran-4-yl)methyl)-8-(5-(4-methylpiperazin-1-yl)-[1,2,4]triazolo[1,5-a]pyridin-8-yl)-[1,2,4]triazolo[4,3-c]pyrimidin-5-amine] |  | 0.0041 | 0.0007 |
| Cc1ccc(-c2cnc(NCc3c(F)ccc4c3CCO4)n3cnnc23)c2nnnn12 [N-((5-fluoro-2,3-dihydrobenzofuran-4-yl)methyl)-8-(5-methyltetrazolo[1,5-a]pyridin-8-yl)-[1,2,4]triazolo[4,3-c]pyrimidin-5-amine] |  | 0.0024 | 0.0025 |
| COc1ccc(-c2cnc(NCc3c(F)ccc4c3CCO4)n3cnnc23)c2ncc(C#N)n12 [8-(5-(((5-fluoro-2,3-dihydrobenzofuran-4-yl)methyl)amino)-[1,2,4]triazolo[4,3-c]pyrimidin-8-yl)-5-methoxyimidazo[1,2-a]pyridine-3-carbonitrile] |  | 0.0039 | 0.0062 |
| CCOC(=O)c1cnc2c(-c3cnc(NCc4c(F)ccc5c4CCO5)n4cnnc34)cc(F)cn12 [Ethyl 6-fluoro-8-(5-(((5-fluoro-2,3-dihydrobenzofuran-4-yl)methyl)amino)-[1,2,4]triazolo[4,3-c]pyrimidin-8-yl)imidazo[1,2-a]pyridine-3-carboxylate] | 0.0221 | 0.047 |  |
